In PMC7075651 (Journal of Medicinal Chemistry, 2018):
Read-outs that look alike come from different tables or passages of the source. Where a SMILES comes first, the peptide text is derived from it. [ ]: non-standard residue; d: D form. The star is where a group is joined. Palmitoyl = CCCCCCCCCCCCCCCC(=O)*; βAla = NCCC(=O)O

Experiments:
[1] = system: TZM-b1 cell; settings: human, TZM-b1 cells
[2] = molecular target: N66 (Influenza A virus, UniProt P03437); format: binding, IAV H3 (X31); settings: pH 8.8
N66, sequence (P03437 385-450 limits assumed): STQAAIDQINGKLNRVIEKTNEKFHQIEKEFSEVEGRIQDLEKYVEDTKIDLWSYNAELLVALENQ

[3] = molecular target: IAV polymerase; assay: cells; format: cell-based, influenza A virus; settings: read-out: IC50, influenza replicon activity
[4] = molecular target: neuraminidase from influenza A/Hong Kong/8/68 (H3N2) (Influenza A virus, UniProt Q91MA2); format: biochemical
neuraminidase from influenza A/Hong Kong/8/68 (H3N2), sequence (Q91MA2 whole entry, looked up): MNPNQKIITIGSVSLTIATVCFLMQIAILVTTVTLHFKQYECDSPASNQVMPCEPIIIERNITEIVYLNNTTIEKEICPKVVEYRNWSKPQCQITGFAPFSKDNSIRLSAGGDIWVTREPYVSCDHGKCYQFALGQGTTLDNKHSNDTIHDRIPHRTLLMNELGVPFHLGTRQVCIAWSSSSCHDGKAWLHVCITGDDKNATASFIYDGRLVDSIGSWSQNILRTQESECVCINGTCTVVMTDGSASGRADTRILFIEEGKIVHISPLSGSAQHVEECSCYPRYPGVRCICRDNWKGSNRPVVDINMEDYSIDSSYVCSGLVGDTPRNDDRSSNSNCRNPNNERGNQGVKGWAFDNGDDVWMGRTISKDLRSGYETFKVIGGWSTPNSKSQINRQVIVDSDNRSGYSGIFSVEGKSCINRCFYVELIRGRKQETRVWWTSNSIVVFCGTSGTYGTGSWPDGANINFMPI

[5] = system: MERS-CoV pseudovirus; settings: 12 h
[6] = in vivo; settings: male, Sprague-Dawley, rat, iv, 5 mg/kg
[7] = system: IAV; format: cell-based, influenza A virus
[8] = system: MDCK cells
[9] = molecular target: HA1 subunit sialic acid-binding site (Influenza A virus, UniProt P03452); design: species or system influenza A/Puerto Rico/8/34 virus
HA1 subunit sialic acid-binding site, sequence (P03452 18-343 limits assumed): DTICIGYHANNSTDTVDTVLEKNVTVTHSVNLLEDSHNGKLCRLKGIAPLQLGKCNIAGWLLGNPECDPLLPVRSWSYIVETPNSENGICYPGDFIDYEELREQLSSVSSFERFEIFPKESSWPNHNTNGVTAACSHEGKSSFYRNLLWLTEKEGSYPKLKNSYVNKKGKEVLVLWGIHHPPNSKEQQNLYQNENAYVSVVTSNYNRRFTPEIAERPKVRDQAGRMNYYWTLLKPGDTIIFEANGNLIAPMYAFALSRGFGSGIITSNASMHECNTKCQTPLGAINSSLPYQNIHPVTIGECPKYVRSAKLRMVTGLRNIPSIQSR
HA1 subunit sialic acid-binding site, sequence (P03452 345-565 limits assumed): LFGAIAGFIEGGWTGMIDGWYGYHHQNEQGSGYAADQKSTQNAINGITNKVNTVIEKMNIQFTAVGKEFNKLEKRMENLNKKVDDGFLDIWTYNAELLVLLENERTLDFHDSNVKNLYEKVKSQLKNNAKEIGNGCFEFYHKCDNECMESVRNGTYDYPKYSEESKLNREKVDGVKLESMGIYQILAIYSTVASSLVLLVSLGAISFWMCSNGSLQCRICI

[10] = molecular target: neuraminidase from influenza A/Puerto Rico/8/1934 (H1N1) (Influenza A virus, UniProt P03468); format: biochemical
neuraminidase from influenza A/Puerto Rico/8/1934 (H1N1), sequence (P03468 whole entry, looked up): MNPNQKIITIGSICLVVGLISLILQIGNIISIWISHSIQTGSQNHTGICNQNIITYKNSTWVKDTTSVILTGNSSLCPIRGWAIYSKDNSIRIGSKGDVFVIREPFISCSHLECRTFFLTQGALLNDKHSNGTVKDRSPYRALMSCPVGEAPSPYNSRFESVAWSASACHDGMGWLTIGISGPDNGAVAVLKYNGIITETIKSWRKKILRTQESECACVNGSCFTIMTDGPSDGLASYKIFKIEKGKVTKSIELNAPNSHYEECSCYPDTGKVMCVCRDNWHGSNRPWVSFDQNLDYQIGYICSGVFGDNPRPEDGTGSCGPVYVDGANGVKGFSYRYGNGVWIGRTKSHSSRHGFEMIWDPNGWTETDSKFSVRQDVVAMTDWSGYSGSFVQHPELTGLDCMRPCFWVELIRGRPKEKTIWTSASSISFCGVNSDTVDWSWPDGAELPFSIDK

[11] = molecular target: HA2 subunit (Influenza A virus, UniProt P03452); design: species or system H1/PR8 virus; settings: pH 4.6
HA2 subunit, sequence (P03452 18-343 limits assumed): as the sequence (P03452 18-343 limits assumed) above
HA2 subunit, sequence (P03452 345-565 limits assumed): as the sequence (P03452 345-565 limits assumed) above

Compound	CC50 on the TZM-b1 cell [1] [µM]	N-PAGE of equimolar mixture with N66 [2]	IC50 [3] [µM]	inhibition of neuraminidase of A/Hong Kong/8/68 (H3N2), in words [4]	EC50 [5] [nM]	level at 24 h [6] [ng/mL]	antiviral activity in the remaining three time intervals [7]	reduction of viral load, interval 0–10 h [7]	CC50, cytotoxicity of compounds on MDCK cells ([8]; dog, MDCK cells, 72 h) [µM]	inhibition of influenza virus-induced aggregation of chicken erythrocytes [9]	inhibition of neuraminidase of A/Puerto Rico/8/34 (H1N1), in words [10]	lysis of erythrocytes caused by HA2 under acidic condition [11]	antiviral effect at the interval of 5–8 h [7]	IC50 ([3]; Influenza A virus, HEK-293T, 30 h) [µM]	CC50, cytotoxicity of compounds on MDCK cells [8] [µM]
CCCCCCCCCCCCCCCC(=O)NCCCC[C@H](NC(=O)CCNC(=O)[C@H](CCCCN)NC(=O)[C@H](CCCCN)NC(=O)[C@H](CCC(N)=O)NC(=O)[C@@H](NC(=O)[C@H](CCC(=O)O)NC(=O)[C@H](CCC(=O)O)NC(=O)[C@@H](NC(=O)[C@H](CCCCN)NC(=O)[C@H](CCCCN)NC(=O)[C@H](CCC(N)=O)NC(=O)[C@@H](NC(=O)[C@H](CCC(=O)O)NC(=O)[C@H](CCC(=O)O)NC(=O)[C@@H](NC(=O)[C@H](CCCCN)NC(=O)[C@H](CCCCN)NC(=O)[C@H](CCC(N)=O)NC(=O)[C@@H](NC(=O)[C@H](CCC(=O)O)NC(=O)[C@H](CCC(=O)O)NC(=O)[C@@H](NC(=O)[C@H](CCCCN)NC(=O)[C@H](CCCCN)NC(=O)[C@H](CCC(N)=O)NC(=O)[C@@H](NC(=O)[C@H](CCC(=O)O)NC(=O)[C@H](CCC(=O)O)NC(=O)[C@@H](NC(=O)[C@H](CCCCN)NC(=O)[C@H](CCCCN)NC(=O)[C@H](CCC(N)=O)NC(=O)[C@@H](NC(=O)[C@H](CCC(=O)O)NC(=O)[C@H](CCC(=O)O)NC(=O)[C@@H](NC(C)=O)[C@@H](C)CC)[C@@H](C)CC)[C@@H](C)CC)[C@@H](C)CC)[C@@H](C)CC)[C@@H](C)CC)[C@@H](C)CC)[C@@H](C)CC)[C@@H](C)CC)[C@@H](C)CC)C(N)=O [IIQ] (Ac-IEEIQKKIEEIQKKIEEIQKKIEEIQKKIEEIQKK[βAla]K(Palmitoyl)-NH2)	> 100	new bands at the upper positions in the gel	> 100	neither IIQ nor favipiravir was able to disturb cleavage of the substrate	130	> 100	no antiviral activity	approximately 60%	>100	no apparent inhibition	neither IIQ nor favipiravir was able to disturb cleavage of the substrate	decreased compared with the hemolytic effect of virus only			
NC(=O)c1nc(F)cnc1O [favipiravir, reference compound]				neither IIQ nor favipiravir was able to disturb cleavage of the substrate							neither IIQ nor favipiravir was able to disturb cleavage of the substrate		continued to exert its full effect		
CCOC(=O)C1=C[C@@H](OC(CC)CC)[C@H](NC(C)=O)[C@@H](N)C1 [oseltamivir, reference compound]														> 100	>100
